Source: the NIST ThermoML archive (doi:10.1016/j.jct.2013.12.028)
± gives the expanded uncertainty stated by the source.

Experiment: mn = molality of the nth substance listed, in mol/kg
Settings: 101.3 kPa, Liquid, Vibrating tube method

C1CCOC1 [tetrahydrofuran] + O
mass density [kg/m3]
Settings	278.15 K	283.15 K	288.15 K	293.15 K	298.15 K	303.15 K	308.15 K	313.15 K	318.15 K
m1 = 0.06882	999.729 ± 0.11	999.439 ± 0.11	998.826 ± 0.11	997.918 ± 0.11	996.743 ± 0.11	995.331 ± 0.11	993.701 ± 0.11	991.864 ± 0.11	989.851 ± 0.11
m1 = 0.1028	999.619 ± 0.11	999.317 ± 0.11	998.697 ± 0.11	997.78 ± 0.11	996.596 ± 0.11	995.178 ± 0.11	993.538 ± 0.11	991.694 ± 0.11	989.672 ± 0.11
m1 = 0.2158	999.282 ± 0.11	998.938 ± 0.11	998.289 ± 0.11	997.343 ± 0.11	996.13 ± 0.11	994.687 ± 0.11	993.021 ± 0.11	991.146 ± 0.11	989.097 ± 0.11
m1 = 0.3098	999.036 ± 0.11	998.655 ± 0.11	997.977 ± 0.11	997.003 ± 0.11	995.764 ± 0.11	994.293 ± 0.11	992.601 ± 0.11	990.703 ± 0.11	988.631 ± 0.11
m1 = 0.4199	998.781 ± 0.11	998.36 ± 0.11	997.637 ± 0.11	996.629 ± 0.11	995.359 ± 0.11	993.859 ± 0.11	992.137 ± 0.11	990.208 ± 0.11	988.102 ± 0.11
m1 = 0.5704	998.489 ± 0.11	997.999 ± 0.11	997.225 ± 0.11	996.162 ± 0.11	994.84 ± 0.11	993.293 ± 0.11	991.526 ± 0.11	989.552 ± 0.11	987.402 ± 0.11
m1 = 0.7194	998.255 ± 0.11	997.698 ± 0.11	996.863 ± 0.11	995.741 ± 0.11	994.361 ± 0.11	992.771 ± 0.11	990.96 ± 0.11	988.935 ± 0.11	986.735 ± 0.11
m1 = 0.8767	998.059 ± 0.11	997.427 ± 0.11	996.519 ± 0.11	995.333 ± 0.11	993.894 ± 0.11	992.247 ± 0.11	990.382 ± 0.11	988.304 ± 0.11	986.049 ± 0.11
m1 = 1.04	997.903 ± 0.11	997.18 ± 0.11	996.19 ± 0.11	994.935 ± 0.11	993.435 ± 0.11	991.725 ± 0.11	989.802 ± 0.11	987.671 ± 0.11	985.363 ± 0.11
m1 = 1.174	997.793 ± 0.11	997.013 ± 0.11	995.964 ± 0.11	994.643 ± 0.11	993.087 ± 0.11	991.324 ± 0.11	989.348 ± 0.11	987.162 ± 0.11	984.803 ± 0.11
m1 = 1.262	997.732 ± 0.11	996.903 ± 0.11	995.814 ± 0.11	994.456 ± 0.11	992.856 ± 0.11	991.065 ± 0.11	989.06 ± 0.11	986.838 ± 0.11	984.443 ± 0.11
m1 = 1.406	997.65 ± 0.11	996.744 ± 0.11	995.581 ± 0.11	994.16 ± 0.11	992.503 ± 0.11	990.648 ± 0.11	988.583 ± 0.11	986.311 ± 0.11	983.864 ± 0.11
m1 = 1.576	997.559 ± 0.11	996.552 ± 0.11	995.314 ± 0.11	993.821 ± 0.11	992.084 ± 0.11	990.16 ± 0.11	988.025 ± 0.11	985.688 ± 0.11	983.169 ± 0.11
